Measured values taken from patent US20190337989A1, “IMMUNITY INDUCER” (priority 2016, published 2019).
“And” between values parts separate entries of the source, which are not always exact repeats. Identical values can stand only once. “Also recorded” adds a separate entry of the source. Like-named read-outs stand apart in the source and are kept apart here.

Legend:
avian influenza virus [1] = tested on: avian influenza virus; design: species or system Balb/c mice; details: mouse, in vivo, ip
avian influenza virus [2] = tested on: avian influenza virus; design: species or system mice; details: mouse, in vivo, iv

## Core-[PEG-STQKAID]4 [avian influenza MAP4]
Avian influenza virus [1]
  IgG concentration: higher than 100 ng/ml
  induction of IgG and IgM antibodies against the avian influenza virus: enabled induction of IgG and IgM antibodies
  mice in which IgM antibodies were induced: 5 out of 5 mice and increased in all mice
  mice with apparent increase in the IgG level: 3 mice out of 5 mice
  subclasses exhibiting increased IgG antibody levels: IgG and IgG3; also recorded: IgG1 and IgG3
  total level of IgG antibody converted to anti-FLAG antibody: 157 ng/mL and 154 ng/mL and 106 ng/mL and 122 ng/mL and 148 ng/mL and 83 ng/mL
Avian influenza virus [2]
  induction of IgG and IgM antibodies against the avian influenza virus: found to be induced; also recorded: enabled induction of IgG and IgM antibodies
